Tests used:
[1] = system: CD20, CD20/CD5 and CD3/CD5 lymphocyte subsets; test: Flowcytometric phenotype of lymphocyte subsets in SAC + rIL-2 cultures; type: cell-based, human; conditions: for effect on relative percent of CD20, CD20/CD5 and CD3/CD5 staining cells: 5 day SAC + rIL-2 culture, FIG. 4; for CD20, % Viable (% Total) / CD20/5, % Viable (% Total): 5 day culture, 1.0 μg/ml FLP + SAC/rIL-2 (50 μ/ml); for CD20/CD5 subpopulations: end of 5 and 10 day culture periods, drug dose dependent, data not shown
Protocol: Approximately 5×10^5−1×10^6 PBMC, enriched T, or B lymphocytes were cultured in 1 ml of S-10 in Falcon 10×75 mm capped polypropylene tissue culture tubes (Falcon #2063) for the appropriate times at 37° C. in a humidified 5% CO2/air atmosphere. Recombinant IL-2 (rIL-2) was used at 50 U/ml and SAC was at a final concentration of {fraction (1/60,000)}. The mitogens phytohemagglutinin (PHA-P) (Pharmacia, #27-3707-01, Uppsala, Sweden) and pokeweed mitogen (PWM, Pharmacia, #27-3702-01) were used at 5 μg/ml and 10 μg/ml, respectively.
Cells were washed once in citrate buffered saline (C-BSS) and 10^5-10^6 cells per sample were aliquoted for staining. For direct immunofluorescence, […] of either FITC- or PC-conjugated CD-specific mouse monoclonal antibody (Becton Dickinson, San Jose, Calif.) were added to cells in […] of C-BSS and incubated at RT for 30 min. The samples were then washed once in 2 ml C-BSS, resuspended in 0.5 ml C-BSS and acquired on a B/D FACScan Flowcytometer using either Simulset or Lysis II software. During analysis of data files, lymphocytes were discriminated from monocytes and dead cells on the basis of their forward light scatter (FCS) properties and high positivity with anti-CD45 and anti-CD14 (leucogate).
In FIG. 4, at the end of the culture period, the cells were washed, fixed with 1% formalin/PBS, and stained with mouse monoclonals anti-CD20 (PE), anti-CD3 (PE), and anti-CD5 (FITC). The stained samples were analyzed on a FACScan flowcytometer using LYSYS II software. Viable cells were gated and results are expressed as percent of total viable events acquired.
Experiments were conducted that sampled supernatants and cells at 5 and 10 days culture with various amounts of drug.

IgG production = test: Cumulative IgG production in SAC + rIL-2 cultures, EIA; type: cell-based, human; conditions: for accumulation of IgG: 5 and 10 day SAC rIL-2 cultures, preliminary studies; for effect on IgG production: FIG. 7B
From the text: In FIG. 7, peripheral blood mononuclear cells (PBMC) enriched for B lymphocytes (BC92; 35% CD19, 33% CD20, 35% CD3) were continuously cultured for 5 days in either medium alone, Staphylococcus aureus Cowan I (SAC) plus interleukin 2 (IL-2) (50 U/ml), or SAC plus IL-2 in the presence of various concentrations of FLP or 2-chlorodeoxyadenosine (2CDA). After 5 days of culture, the supernatants were harvested and serial dilutions of supernatant assayed for huIgM and huIgG by EIA. The presence of IgM rheumatoid factor (IgM-RF) was determined by EIA using the Vectastain Biotin-Streptavidin amplification system. Results are reported as O.D. 405 nm units. Nonspecific binding of neat supernatant to uncoated wells was <0.05% of that seen with the respective coated wells. The results shown are from 1 representative experiment of 4 separate experiments conducted with 4 different sources of packed leukocytes.
In FIG. 8, peripheral blood mononuclear cells (PBMC) enriched for B lymphocytes (BC92, 35% CD19, 33% CD20, 35% CD3) were continuously cultured for 10 days in either medium alone, Staphylococcus aureus Cowan I (SAC) plus interleukin 2 (IL-2) (50 U/ml), or SAC plus IL-2 in the presence of various concentrations of FLP or 2CDA. At the end of the culture period, the supernatants were harvested and serial dilutions assayed for huIgM, huIgG, and IgM-RF by EIA. The cells were phenotyped by flowcytometry. Results are reported as O.D. 405 nm units. Nonspecific binding of neat supernatants to uncoated wells was <0.5% of that seen with parallel coated wells. The results shown are from 1 experiment representative of 3 separate experiments conducted with 3 different sources of packed leukocytes.
In FIG. 9, peripheral blood mononuclear cells (PBMC) (BC93; 22% CD19, 20% CD20, 78% CD3) were continuously cultured for 5 days in either medium alone, Staphylococcus aureus Cowan I (SAC) plus interleukin 2 (IL-2) (50 U/ml) or 20% T cell conditioned medium (Tcm) in the presence of various concentrations of FLP. At the end of the 5 day culture period, the supernatants were harvested and serial dilutions assayed for huIgM, huIgG, and IgM-RF by EIA. The results are reported as O.D. 405 nm units. Nonspecific binding of neat supernatants to uncoated wells was <0.05% of parallel coated wells. The results shown are from one representative experiment.
Immulon-2 (Dynatek Laboratories, #011-010-3450, Chantilly, Va.) flat-bottom 96 well microtiter plates were coated with 100 μl/well of a 2 μg/ml solution of goat F(ab′)2 anti-HuIgM (μ chain, CALTAG #H15100, So. San Francisco, Calif.) or goat F(ab′)2 anti-HuIgG (Fc sp., CALTAG #H10100) in 0.1 M sodium carbonate buffer, pH 9.6 overnight at 4° C. Uncoated wells were incubated with the carbonate buffer alone. The plates were rinsed and then incubated with 100 μl/well of 0.1% BSA/PBS for 1 hr at RT. The plates were rinsed twice with PBS and then incubated for 2 hrs at RT with the respective serial dilutions of culture supernatant and human IgM or IgG standards (Sigma, St.
Louis, Mo.). All dilutions were made in complete S-10 medium (see above). At the end of the incubation period, the plates were rinsed 3 times with PBS/0.05% Tween-20. 100 μl of a 1/500 dilution of goat F(ab′)2 anti-IgM (m) or anti-IgG (H+L) conjugated with alkaline phosphatase (Fisher Biotech, #OB1210-ALPH and #OB1220-ALPH, Pittsburg, Pa.) was added to each well and incubated for 1 hr at RT. The plates were rinsed 3-5 times with PBS/0.05% Tween-20 and 100 μl/well of p-nitrophenyl phosphate substrate (Bio-Rad, Richmond, Calif.) was added and incubated for 30 min. The wells were read at 405 nm with an InterMed NJ-2000 immunoreader. The concentration of sample IgM or IgG was calculated off of a standard curve using the XFROMY linear regression analysis on RS-1 (VAX-VMS). Nonspecific binding was determined from low-dilution samples incubated in parallel in uncoated wells (<0.005% O.D. 405 nm of coated wells). […]

B lymphocytes = conditions: SAC + rIL-2, drug present 0-72 hr, 72-144 hr or continuously; results not shown
Protocol: The B lymphocytes are cultured with SAC +rIL-2 under the following conditions:
1. 0 to 72 hr + drug (0.1-0.5 […]), wash, continue culture for additional 72 hr
2. 0 to 72 hr, wash, add drug for additional 72 hr culture
3. No drug for 6 days (wash at 3 days)
4. Drug in continuous culture for 6 days
At the end of the culture period, the supernatants are assayed for IgM, IgG, and IgM-RF.

SMILES | effect on relative percent of CD20, CD20/CD5 and CD3/CD5 staining cells ([1]; 0.1 μg/ml) | effect on relative percent of CD20, CD20/CD5 and CD3/CD5 staining cells ([1]; 0.5 μg to 5.0 μg/ml) | CD20, % Viable (% Total) ([1]; IL-6 +) [%] | CD20/5, % Viable (% Total) ([1]; IL-6 +) [%] | CD20, % Viable (% Total) ([1]; IL-6 −) [%] | CD20/5, % Viable (% Total) ([1]; IL-6 −) [%] | CD20/CD5 subpopulations [1] | effect on IgG accumulation (IgG production; 0.1 μg/ml, 10 days, FIG. 8B) | reduction of IgG accumulation (IgG production; 1 μg, 10 days, FIG. 8B) [%] | reduction of IgG accumulation (IgG production; 5 μg, 10 days, FIG. 8B) [%] | reduction of IgG accumulation (IgG production; 0.1 and 0.5 μg/ml, PBMC, 5 days, cultures supplemented with T cell conditioned medium, FIG. 9B) | accumulation of IgG (IgG production) | effect on IgG production (IgG production; one hundred nanograms per ml, 5 days) | part of the life cycle on which the drug has its primary effect (B lymphocytes) | effect on IgG production (IgG production; one microgram per ml, 5 days) | effect on IgG accumulation (IgG production; one microgram per ml, 10 days)
Nc1nc(F)nc2c1ncn2[C@@H]1O[C@H](COP(=O)(O)O)[C@@H](O)[C@@H]1O [FLP, fludarabine-5′-monophosphate] | minimal effect | dose-dependent decrease | 60 | 1.9 | 64 | 1.8 | decreased | minimal effect | 80 | 98 | not seen | dose-related decrease | minimal effect | early stage B lymphocyte proliferation/differentiation |  | 
Nc1nc(Cl)nc2c1ncn2[C@H]1C[C@H](O)[C@@H](CO)O1 [2CDA, 2-chlorodeoxyadenosine] |  |  |  |  |  |  | decreased |  |  |  |  | dose-related decrease |  |  | block | block the accumulation
